Measured values published in article PMC7395068, “The evolution of strategies to minimise the risk of human drug-induced liver injury (DILI) in drug discovery and development” (Archives of Toxicology, 2020).
Read-outs that look alike come from different tables or passages of the source.

Legend:
[1] = test system: HepaRG spheroids; experiment: Combined HCI (HCS) and cellular ATP 3D assay in HepaRG spheroids; settings: for AC50 / minimal effective concentration: Homo sapiens
[2] = ref Chen 2011; cited from earlier work
[3] = test system: HepG2 cells; settings: cited from earlier work
[4] = plasma free fraction; cited from earlier work
[5] = test system: HepG2 C3A spheroid, BSEP, Glu/Gal in HepG2 cells, bioactivation; settings: cited from earlier work
[6] = test system: PHH; settings: cited from earlier work
[7] = cited from earlier work
[8] = Plasma free fraction (fu) and unbound Cmax (Cmax,u); type: in vitro ADME, human; settings: unbound plasma Cmax
[9] = test system: hLiMTs; settings: cited from earlier work
[10] = test system: THLE-Null and THLE-3A4 cells; settings: In vitro Assay; ref Gustafsson 2014; cited from earlier work
[11] = test system: primary human hepatocytes, NIH3T3 fibroblasts, BSEP, CYP3A4; settings: cited from earlier work
[12] = test system: isolated mouse liver mitochondria; settings: In vitro Assay; ref Porceddu 2012; cited from earlier work
[13] = test system: Upcyte human hepatocytes; settings: In vitro Assay; ref Tolosa 2019; cited from earlier work
[14] = cited from earlier work; remark: listed apart in the source
[15] = test system: PHH spheroids; settings: cited from earlier work
[16] = test system: HepG2 cells, primary human hepatocytes; settings: In vitro Assay; ref Garside 2014; cited from earlier work
[17] = test system: hLiMTs; experiment: Combined HCI (HCS) and cellular ATP 3D assay in hLiMTs; settings: for AC50 / minimal effective concentration: Homo sapiens
[18] = test system: THLE or HepG2 cells, isolated mitochondria, BSEP; settings: cited from earlier work
[19] = cited from earlier work; remark: listed apart in the source
[20] = test system: rBsep; settings: In vitro Assay; ref Dawson 2012; cited from earlier work
[21] = test system: HepG2 cells; settings: cited from earlier work; remark: listed apart in the source
[22] = test system: HepG2 cells; settings: In vitro Assay; ref O'Brien 2006; cited from earlier work
[23] = test system: human hepatocytes; settings: In vitro Assay; ref Xu 2008; cited from earlier work
[24] = Microtissue model structural based (HCI), combined HCS and ATP, MEC < 25 × Cmax.tot cut-off
[25] = In vitro Assay, ref Proctor 2017
[26] = In vitro Assay, ref Schadt 2015
[27] = Modeled in vitro assays (cytotoxicity, mitochondrial dysfunction, BSEP), ref Aleo et al. 2019
[28] = In vitro Assay, ref Persson 2013

HepaRG <25x Avg Cmax ATP ([1]; HepaRG, ATP endpoint, cut-off <25x Avg Cmax): +ve
HepaRG <100x Avg Cmaxu ATP ([1]; HepaRG, ATP endpoint, cut-off <100x Avg Cmaxu): +ve (<100x Avg Cmaxu)
HepaRG <25x Avg Cmax HCS ([1]; HepaRG, HCS endpoints, cut-off <25x Avg Cmax): +ve
HepaRG <100x Avg Cmaxu HCS ([1]; HepaRG, HCS endpoints, cut-off <100x Avg Cmaxu): +ve (<100x Avg Cmaxu)
HepaRG <25x Avg Cmax All ([1]; HepaRG, all endpoints (ATP and HCS), cut-off <25x Avg Cmax): +ve
HepaRG Cmax max All ([1]; HepaRG, all endpoints, Cmax max used): +ve
HepaRG Cmax min All ([1]; HepaRG, all endpoints, Cmax min used): +ve
HepaRG <10 uM All ([1]; HepaRG, all endpoints, cut-off <10 uM): +ve (<10 uM)
HepaRG <100x Avg Cmaxu All ([1]; HepaRG, all endpoints, cut-off <100x Avg Cmaxu): +ve (<100x Avg Cmaxu)
Human plasma Cmax,u [8]: 0.272 µM
hLiMTs <25x Avg Cmax ATP ([17]; hLiMTs, ATP endpoint, cut-off <25x Avg Cmax): +ve
hLiMTs <100x Avg Cmaxu ATP ([17]; hLiMTs, ATP endpoint, cut-off <100x Avg Cmaxu): +ve (<100x Avg Cmaxu)
hLiMTs <25x Avg Cmax HCS ([17]; hLiMTs, HCS endpoints, cut-off <25x Avg Cmax): +ve
hLiMTs <100x Avg Cmaxu HCS ([17]; hLiMTs, HCS endpoints, cut-off <100x Avg Cmaxu): +ve (<100x Avg Cmaxu)
hLiMTs <25x Avg Cmax All ([17]; hLiMTs, all endpoints (ATP and HCS), cut-off <25x Avg Cmax): +ve
hLiMTs Cmax max All ([17]; hLiMTs, all endpoints, Cmax max used): +ve
hLiMTs Cmax min All ([17]; hLiMTs, all endpoints, Cmax min used): +ve
hLiMTs <10 uM All ([17]; hLiMTs, all endpoints, cut-off <10 uM): +ve (<10 uM)
hLiMTs <100x Avg Cmaxu All ([17]; hLiMTs, all endpoints, cut-off <100x Avg Cmaxu): +ve (<100x Avg Cmaxu)
Structure (SMILES): CC(C)C(=O)Nc1ccc([N+](=O)[O-])c(C(F)(F)F)c1 [flutamide, reference compound]
AC50 ([1]; HepaRG, read-out: ATP endpoint AC50): 14.9 µM
minimal effective concentration ([1]; HepaRG, read-out: ATP endpoint MEC): 7.75 µM
AC50 ([1]; HepaRG, read-out: HCS endpoint AC50): 42.7 µM
minimal effective concentration ([1]; HepaRG, read-out: HCS endpoint MEC): 13.9 µM
DILI prediction HepaRG spheroids (HCS-MEC) [1, 24]: +VE (MEC < 25 × Cmax.tot cut-off)
DILI Score (FDA) (1-8) [2]: 8
Structural based (HCI) ([3]; In vitro Assay, ref Tolosa 2012): +VE
DILI in vitro assay prediction, Tolosa (2012) ([3]; Structural based (HCI), HepG2, ref Tolosa et al. 2012): +VE
fu [4]: 0.050
Bayesian Machine Learning DILI prediction, Williams (2019) ([5]; Bayesian modeling, ref Williams et al. 2019): +VE
Bayesian Machine Learning ([5]; In vitro Assay, ref Williams 2019): +VE
PHH/100xCmax, Proctor (2017) ([6]; 2D PHH, ATP, IC50 < 100 × Cmax.tot, ref Proctor et al. 2017): +VE (IC50 < 100 × Cmax.tot)
PHH/100uM, Proctor (2017) ([6]; 2D PHH, ATP, IC50 threshold 100 µM, ref Proctor et al. 2017): +VE (IC50 threshold of 100 µM)
PHH ATP <100uM [6, 25]: +VE (IC50 threshold of 100 µM)
DILI severity category (Chen et al. [2016]) ([7]; LTKB DILIrank category, ref Chen et al. 2016): Most
DILI severity category (Chen 2016) ([7]; human DILI classification, LTKB DILIrank, ref Chen et al. 2016): Most
DILI severity category ([7]; human DILI severity, ref Chen et al.): Most
DILI +VE (5-8), DILI -VE (-4) ([7]; ref Chen 2016): +VE
DILI severity category ([7]; ref Chen 2016): vMost-DILI-Concern
hLiMTs ATP <100uM [9, 25]: +VE (IC50 threshold of 100 µM)
hLiMTs/100xCmax, Proctor (2017) ([9]; hLiMTs, ATP, IC50 < 100 × Cmax.tot, ref Proctor et al. 2017): +VE (IC50 < 100 × Cmax.tot)
hLiMTs/100uM, Proctor (2017) ([9]; hLiMTs, ATP, IC50 threshold 100 µM, ref Proctor et al. 2017): +VE (IC50 threshold of 100 µM)
THLE-Null [10]: -VE
THLE-Null/3A4 [10]: -VE
DILI in vitro assay prediction, Schadt (2015) ([11]; BSEP & Metabolism based, ref Schadt et al. 2015): +VE
Cellular toxicity (3T3 cells) [11, 26]: -VE
Combined Assay [11, 26]: +VE
GSH adduct HML [11, 26]: +VE
Hepatocyte cellular toxicity [11, 26]: -VE
MitoTox 3T3 [11, 26]: +VE
TDI CYP3A4 [11, 26]: -VE
hBSEP inhibition [11, 26]: -VE
in vitro data EC2<=1x Cmax [12]: +VE
in vitro data EC20<=2uM [12]: -VE
Upcytes multi donor assay 14day data [13]: +VE
Assigned DILI category ([14]; Chen et al. 2016 or literature alignment, ref Chen et al. 2016): 3
In vivo DILI ([14]; […]): +VE
In vivo DILI ([14]; ref Aleo 2019): +VE
In vivo DILI ([14]; ref Dawson 2012): +VE
In vivo DILI ([14]; ref Garside 2014): +VE
In vivo DILI ([14]; ref Gustafsson 2014): +VE
In vivo DILI ([14]; ref O'Brien 2006): +VE
In vivo DILI ([14]; ref Persson 2013): +VE
In vivo DILI ([14]; ref Porceddu 2012): -VE
In vivo DILI ([14]; ref Proctor 2017): +VE
In vivo DILI ([14]; ref Schadt 2015): +VE
In vivo DILI ([14]; ref Tolosa 2012): +VE
In vivo DILI ([14]; ref Tolosa 2019): +VE
In vivo DILI ([14]; ref Vorrink 2018): +VE
In vivo DILI ([14]; ref Williams 2019): +VE
In vivo DILI ([14]; ref Xu 2008): +VE
hLiMTs ATP <20 x Cmax ([15]; In vitro Assay, ref Vorrink 2018): +VE (IC20 < 20 × Cmax.tot cut-off)
DILI in vitro assay prediction, Vorrink (2018) ([15]; PHH spheroids, ATP, 14 days, IC20 < 20 × Cmax.tot, ref Vorrink et al. 2018): +VE (IC20 < 20 × Cmax.tot cut-off)
Cluster 1-6 +VE Assay [16]: +VE
AC50 ([17]; read-out: ATP endpoint AC50): 29.9 µM
minimal effective concentration ([17]; read-out: ATP endpoint MEC): 18.5 µM
AC50 ([17]; read-out: HCS endpoint AC50): 43.5 µM
minimal effective concentration ([17]; read-out: HCS endpoint MEC): 3.63 µM
DILI prediction hLiMTs (HCS-MEC) [17, 24]: +VE (MEC < 25 × Cmax.tot cut-off)
Partition Hybrid HRM Score ([18]; In vitro Assay, ref Aleo 2019): +VE
Ro2 Hybrid HRM Score ([18]; In vitro Assay, ref Aleo 2019): +VE
Partition Hybrid HRM Score ≥4, Aleo (2019) [18, 27]: +VE (Partition Hybrid HRM Score ≥4)
Partition Hybrid HRM Score ≥8, Aleo (2019) [18, 27]: +VE (Partition Hybrid HRM Score ≥8)
Rule of Two hybrid HRM Score ≥3, Aleo (2019) [18, 27]: +VE (Rule of Two hybrid HRM Score ≥3)
Rule of Two hybrid HRM Score ≥8, Aleo (2019) [18, 27]: +VE (Rule of Two hybrid HRM Score ≥8)
Cmax ([19]; read-out: Cmax.tot, value used for normalisation, ref O'Brien et al. 2006): 6 µM
Cmax ([19]; read-out: Cmax.tot, value used for normalisation, ref Xu et al. 2008): 0.36 µM
Cmax ([19]; read-out: Human plasma Cmax, total plasma Cmax.tot, median of 9 literature references): 5.43 µM
Inhibition of rBsep cutoff<1& cmax u>.2 [20]: +VE
Inhibition of rBsep cutoff<3 [20]: +VE
Cluser analysis [21, 28]: -VE
Structural based (HCI) [21, 28]: -VE
DILI in vitro assay prediction, Persson (2013) ([21]; Structural based (HCI), HepG2, ref Persson et al. 2013): -VE
Structural based (HCI) [22]: +VE
Structural based (HCI) [23]: -VE
